Laboratory results reported in ChEMBL document CHEMBL1138501, “Structure-guided design, synthesis, and evaluation of salicylic acid-based inhibitors targeting a selectivity pocket in the active site of human 20alpha-hydroxysteroid dehydrogenase (AKR1C1)” (J Med Chem, 2009).

Tests used:
[1] = molecular target: T1, Aldo-keto reductase family 1 member C1 (Homo sapiens, UniProt Q04828); assay: Inhibition of 20-alpha HSD
T1 sequence (Q04828 whole entry): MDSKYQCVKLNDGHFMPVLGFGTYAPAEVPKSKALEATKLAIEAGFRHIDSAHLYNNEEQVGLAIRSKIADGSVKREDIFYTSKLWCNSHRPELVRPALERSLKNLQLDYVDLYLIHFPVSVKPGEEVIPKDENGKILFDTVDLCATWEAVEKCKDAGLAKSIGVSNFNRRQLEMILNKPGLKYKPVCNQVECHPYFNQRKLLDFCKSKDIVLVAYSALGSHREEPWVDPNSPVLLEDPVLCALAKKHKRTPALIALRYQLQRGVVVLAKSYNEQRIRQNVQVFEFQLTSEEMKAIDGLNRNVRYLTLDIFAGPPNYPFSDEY

[2] = Cytotoxicity against BAEC assessed as cell viability at 10 uM; format: cell-based, Bos taurus; details: cattle
[3] = molecular target: T2, Aldo-keto reductase family 1 member C3 (Homo sapiens, UniProt P42330); assay: Inhibition of human recombinant type 2 3-alpha-HSD expressed in Escherichia coli JM109
T2 sequence (P42330 whole entry): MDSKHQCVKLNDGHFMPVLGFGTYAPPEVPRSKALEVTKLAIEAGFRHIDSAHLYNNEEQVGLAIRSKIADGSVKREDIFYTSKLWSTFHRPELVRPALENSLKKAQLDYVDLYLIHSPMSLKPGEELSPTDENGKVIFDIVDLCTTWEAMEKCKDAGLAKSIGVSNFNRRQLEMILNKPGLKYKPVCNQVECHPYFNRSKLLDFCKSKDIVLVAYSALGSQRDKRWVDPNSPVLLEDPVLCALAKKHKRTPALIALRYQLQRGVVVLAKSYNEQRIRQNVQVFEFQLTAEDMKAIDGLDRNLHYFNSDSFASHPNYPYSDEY

[4] = molecular target: T3, Aldo-keto reductase family 1 member C4 (Homo sapiens, UniProt P17516); assay: Inhibition of human recombinant type 1 3-alpha-HSD expressed in Escherichia coli JM109
T3 sequence (P17516 whole entry): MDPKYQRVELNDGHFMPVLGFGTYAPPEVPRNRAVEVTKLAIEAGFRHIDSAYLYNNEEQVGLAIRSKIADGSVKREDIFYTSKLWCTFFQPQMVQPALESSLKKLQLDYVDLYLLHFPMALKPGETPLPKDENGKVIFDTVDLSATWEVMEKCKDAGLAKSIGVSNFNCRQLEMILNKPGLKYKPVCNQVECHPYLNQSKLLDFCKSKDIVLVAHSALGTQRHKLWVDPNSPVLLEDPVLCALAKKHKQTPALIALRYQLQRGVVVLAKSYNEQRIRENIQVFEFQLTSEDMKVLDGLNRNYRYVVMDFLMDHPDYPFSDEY

[5] = molecular target: T4, Aldo-keto reductase family 1 member C1 (Homo sapiens) (UniProt Q04828); details: 10 uM
T4 sequence (whole entry): T1 sequence (Q04828 whole entry)

[6] = molecular target: T1, Aldo-keto reductase family 1 member C1
Description: Inhibition of human recombinant 20-alpha HSD expressed in Escherichia coli JM109

Ki [3] [µM] | Ki ([4]; read-out: Ki) [µM] | inhibition [5] [%] | Ki [6] [µM] | Ki [4] | SMILES | IC50 [1] [µM] | Activity [2]
– | – | – | – | – | O=C1OC(c2cc(Br)c(O)c(Br)c2)(c2cc(Br)c(O)c(Br)c2)c2ccccc21 | 0.033 | –
23 | 45.7 | – | – | – | O=C(O)c1cc(Br)cc(Br)c1O | – | Non-toxic
21 | – | 40 | 0.14 | Not Active | O=C(O)c1cc(Br)cc(-c2ccccc2)c1O | – | Non-toxic
– | – | – | – | – | CCc1oc2ccccc2c1C(=O)c1cc(Br)c(O)c(Br)c1 [BENZBROMARONE] | 0.048 | –
4.2 | 18.2 | – | – | – | O=C(O)c1cc(-c2ccccc2)cc(Br)c1O | – | Non-toxic
